± gives the expanded uncertainty stated by the source.
Details: Liquid; for mass density: 298.15 K, 101.33 kPa, Vibrating tube method; for vapor or sublimation pressure: Ebulliometric method (Recirculating still)

C=C1CC/C=C(\C)CC[C@@H]2[C@@H]1CC2(C)C
Details | mass density [kg/m3] | vapor or sublimation pressure [kPa]
– | 896.8 ± 2 | –
370.33 K | – | 0.51 ± 0.4
380.5 K | – | 0.84 ± 0.4
395.45 K | – | 1.63 ± 0.41
420.02 K | – | 4.31 ± 0.44
435.58 K | – | 7.51 ± 0.52
454.18 K | – | 13.85 ± 0.62
464.9 K | – | 19.18 ± 0.78
474.02 K | – | 24.96 ± 0.91
480.05 K | – | 29.55 ± 1.1
491.45 K | – | 40.33 ± 1.4
502.53 K | – | 53.62 ± 1.7
512.49 K | – | 68.83 ± 2.1
522.97 K | – | 88.4 ± 2.4
528.78 K | – | 101.33 ± 2.7

Cc1ccc(C(C)C)cc1 [1-(1-methylethyl)-4-methylbenzene]
Details | mass density [kg/m3] | vapor or sublimation pressure [kPa]
– | 853.2 ± 2 | –
450.28 K | – | 101.33 ± 6.1

CC1=CCC2C(C1)C2(C)C (centres undefined) [3,7,7-trimethylbicyclo[4.1.0]hept-3-ene]
Details | mass density [kg/m3] | vapor or sublimation pressure [kPa]
– | 863.8 ± 2 | –
356.07 K | – | 5.32 ± 0.64
378.03 K | – | 14.5 ± 0.68
388.7 K | – | 20.46 ± 0.8
391.9 K | – | 22.59 ± 1
396.66 K | – | 26.61 ± 1.1
405.49 K | – | 34.54 ± 1.3
412.42 K | – | 42.81 ± 1.5
416.18 K | – | 47.76 ± 1.8
424.04 K | – | 59.53 ± 1.9
426.24 K | – | 63.19 ± 2.1
430.64 K | – | 70.97 ± 2.2
433.68 K | – | 76.91 ± 2.4
436.32 K | – | 82.05 ± 2.7
439.47 K | – | 89.96 ± 2.8
442.61 K | – | 96.43 ± 2.8
444.44 K | – | 101.33 ± 3.2

— the NIST ThermoML archive (doi:10.1016/j.jct.2018.08.015)
